Target: T1, rCLK1 (recombinant CLK1, KKT10) (Leishmania mexicana, UniProt E9AMP2)
T1 construct: gene LMXM_09_0400
T1 sequence (E9AMP2 1-422): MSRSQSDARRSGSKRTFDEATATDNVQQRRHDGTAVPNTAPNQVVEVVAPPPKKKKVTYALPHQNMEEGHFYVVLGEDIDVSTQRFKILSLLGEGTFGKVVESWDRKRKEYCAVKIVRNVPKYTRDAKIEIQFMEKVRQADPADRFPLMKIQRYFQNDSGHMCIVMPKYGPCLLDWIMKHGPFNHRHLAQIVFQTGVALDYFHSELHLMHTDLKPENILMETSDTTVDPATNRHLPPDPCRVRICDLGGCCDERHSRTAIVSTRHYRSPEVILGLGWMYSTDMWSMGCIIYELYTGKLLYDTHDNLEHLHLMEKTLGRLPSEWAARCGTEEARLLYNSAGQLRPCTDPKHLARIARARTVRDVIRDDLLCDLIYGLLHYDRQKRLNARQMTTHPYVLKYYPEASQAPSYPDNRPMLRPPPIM
Conditions: 1 mM ATP, 5 mM MgCl2, 1 mM MnCl2, pH 7.5, 2 h, 37 °C

Nc1ncnc2c1ncn2[C@@H]1O[C@H](COP(=O)(O)OP(=O)(O)OP(=O)(O)O)[C@@H](O)[C@H]1O [ATP]
autophosphorylation by intact mass spectrometry: Following incubation with ATP, rCLK1 exhibited three distinct phosphorylation states

Reference: PMC13211308, “Chemical genetics reveals Leishmania KKT2 and CRK9 kinase activity is required for cell cycle progression” (PLOS Pathogens, 2026)
